Data as given in patent US7923021B2, “Local delivery method and composition” (University of Memphis Research Foundation, priority 2007, dated 2011).
In brackets after ≈: the same amount, converted by molar mass.

Key:
[1] = system: Pseudomonas aeruginosa strain ATCC 27317; experiment: Biological activity testing of eluates and antibiotic dilutions, growth in TSB, A530; assay type: cell-based; conditions: P. aeruginosa ATCC 27317, observed
Procedure: Pseudomonas aeruginosa strain ATCC 27317 was used for biological activity testing of AmikacinTM and GentamicinTM eluates. A clinical isolate of Staphylococcus aureus Cowan I strain was used to assess activity of VancomycinTM eluates. The eluate having the lowest concentration for each antibiotic at each of the specified time points was used in the biological activity assay. P. aeruginosa or S. aureus was grown overnight at 37° C. in Trypticase soy broth (TSB). Conical tubes were prepared with 1.75 ml of TSB and 200 μl of antibiotic dilutions (AmikacinTM: 0-640 μg/ml, GentamicinTM: 0-2560 μg/ml, VancomycinTM: 0-160 μg/ml), or 200 μl eluate samples, or 200 μl buffer. All tubes except blanks were inoculated with 50 μl of 1:50 dilution of bacteria. Blanks were supplanted with an additional 50 μl of TSB instead of bacteria. The tubes were vortexed and incubated at 37° C. for 24 hours. A blank was used to adjust the spectrophotometer to zero, and the absorbance at 530 nm ([…]) was recorded. Results were reported as percent growth relative to control, calculated as ([…] sample/[…] control)×100. This method dilutes the sample concentration by a factor of 10. Testing was repeated for three replicates of the samples.

[2] = Elution of antibiotic from pellets or flakes into PBS at 37° C., Fluorescence Polarization Immunoassay; assay type: physicochemical; conditions: from rapidly resorbing pellets loaded with 4% antibiotic, FIG. 2
Procedure: Elution was characterized by placing groups of eight pellets or the flakes of eight pellets (n≧3) in 20 ml phosphate buffered saline (PBS) in a 37° C. water bath. At specified times (t=1, 4, 8, 12, 24, 36, 48, 72, 96, 120, 144, 168, 240 hours), aliquots were removed and frozen at -40° C. At each time interval, the pellets were removed and placed in 20 ml fresh PBS. The amount of antibiotic in the eluates was determined (μg/ml) using a Florescence Polarization Immunoassay ([…], Abbott Laboratories, Abbott Park, Ill.). Testing was repeated for three batches of pellets.

Compound	MIC ([1]; Pseudomonas aeruginosa, ATCC27317, read-out: minimum inhibitory concentration (MIC)) [µg/mL]	Elution profile (qualitative) [2]	minimum inhibitory concentration (MIC) [1] [µg/mL]
NCC[C@H](O)C(=O)N[C@@H]1C[C@H](N)[C@@H](O[C@H]2O[C@H](CN)[C@@H](O)[C@H](O)[C@H]2O)[C@H](O)[C@H]1O[C@H]1O[C@H](CO)[C@@H](O)[C@H](N)[C@H]1O [Amikacin™, Amikacin]	4 (≈ 6.83 µM)	peak at hour one and decrease exponentially	
Gentamicin [Gentamicin™]		peak at hour one and decrease exponentially	4.0
CN[C@H](CC(C)C)C(=O)N[C@H]1C(=O)N[C@@H](CC(N)=O)C(=O)N[C@H]2C(=O)N[C@H]3C(=O)N[C@H](C(=O)N[C@H](C(=O)O)c4cc(O)cc(O)c4-c4cc3ccc4O)[C@H](O)c3ccc(c(Cl)c3)Oc3cc2cc(c3O[C@@H]2O[C@H](CO)[C@@H](O)[C@H](O)[C@H]2O[C@H]2C[C@](C)(N)[C@H](O)[C@H](C)O2)Oc2ccc(cc2Cl)[C@H]1O [Vancomycin™, Vancomycin]		burst of antibiotic in hour one	
